From ChEMBL document CHEMBL1201862, “PubChem BioAssay data set” (2004)
Several values for one entry are separate records, joined by “and”; a condition that tells them apart may be missing. Equal entries are not always repeated.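 A five-concentration, 48-hour dose response in 96-well plates underlies each endpoint, interpolated linearly between surrounding concentrations. GI50 = concentration required for 50% inhibition of growth.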 Activity calls are given as the source filed them. No stated cut-off is given here; in the data, active = GI50 up to about 1.1 µM and inactive = higher.

Experiments:
Assay in all cases: growth of human tumour cells (NCI), 48 h
[1] = tested on: TK-10
[2] = tested on: NCI-H522
[3] = tested on: OVCAR-5
[4] = tested on: RXF 393
[5] = tested on: HOP-92
[6] = tested on: OVCAR-3
[7] = tested on: SK-MEL-5
[8] = tested on: SK-OV-3
[9] = tested on: NCI-H23
[10] = tested on: SN12C
[11] = tested on: MOLT-4
[12] = tested on: OVCAR-8
[13] = tested on: HOP-18
[14] = tested on: UACC-62
[15] = tested on: HOP-62
[16] = tested on: SW-620
[17] = tested on: NCI/ADR-RES
[18] = tested on: DU-145
[19] = tested on: MDA-MB-435
[20] = tested on: MDA-MB-231

Measured: GI50

OC1c2ccccc2C2(O)C1C(c1ccccc1)C(c1ccccc1)C2(O)c1ccccc1 (configuration not stated)
inactive: [1] 23.2 µM | [2] 6.34 µM | [3] 10.7 µM | [4] 16 µM | [5] 7.33 µM | [6] 4.88 µM | [7] 7.13 µM | [8] 22.2 µM | [9] 13.3 µM | [10] 11.4 µM | [11] 3.98 µM | [12] 12.6 µM | [13] 14.9 µM | [14] 10.4 µM | [15] 13.2 µM | [16] 15.8 µM

C/C(=N\OCC(O)CNC(C)C)c1ccc2c(c1)NC(=O)CS2 (configuration not stated)
inactive: [1] > 100 µM | [2] > 100 µM | [3] > 100 µM | [4] > 100 µM | [5] 42.1 µM | [6] > 100 µM | [7] > 100 µM | [8] > 100 µM | [9] > 100 µM | [10] > 100 µM | [11] > 100 µM | [12] > 100 µM | [13] > 100 µM | [14] > 100 µM | [15] > 100 µM | [16] > 100 µM

Cc1cc(C)nc(NS(=O)(=O)c2ccc(NC(=O)c3cccc4c(Nc5ccc(S(=O)(=O)Nc6nc(C)cc(C)n6)cc5)c5ccc(Cl)cc5nc34)cc2)n1
inactive: [1] 30.8 µM | [2] 15.6 µM | [3] > 100 µM | [4] 78.3 µM | [5] 28 µM | [6] 17.5 µM | [7] 20.1 µM | [8] 26.7 µM | [9] 39.4 µM | [10] 35.5 µM | [11] 33.3 µM | [12] 34.7 µM | [13] > 100 µM | [14] 23.1 µM | [15] 24.4 µM | [16] 54.1 µM

CCOC(=O)CCC1(C(=O)OC)CCCC1=O (configuration not stated)
inactive: [1] > 100 µM | [2] > 100 µM | [3] > 100 µM | [4] > 100 µM | [5] > 100 µM | [6] > 100 µM | [7] > 100 µM | [8] > 100 µM | [9] > 100 µM | [11] > 100 µM | [12] > 100 µM | [13] 62.2 µM | [15] > 100 µM | [16] > 100 µM

CCC(C)NC1=C(NC(C)=O)C(=O)c2ccccc2C1=O (configuration not stated)
inactive: [1] > 75 µM | [3] > 75 µM | [4] > 75 µM | [5] > 75 µM | [6] 40.6 µM | [7] > 75 µM | [8] > 75 µM | [9] > 75 µM | [10] > 75 µM | [11] 74 µM | [12] > 75 µM | [13] > 75 µM | [14] > 75 µM | [15] > 75 µM | [16] 22.5 µM

Cc1ccc(/C=N/NS(=O)(=O)c2ccccc2)c(C)c1
inactive: [1] > 100 µM | [3] > 100 µM | [4] > 100 µM | [5] > 100 µM | [6] > 100 µM | [7] > 100 µM | [8] > 100 µM | [9] > 100 µM | [10] > 100 µM | [11] > 100 µM | [12] > 100 µM | [13] > 100 µM | [14] > 100 µM | [15] > 100 µM | [16] > 100 µM

CCOC(=O)C(Cc1ccc([N+](=O)[O-])cc1)NC(=O)CC1c2ccccc2-c2ccccc21 (configuration not stated)
inactive: [1] 32.7 µM | [2] > 100 µM | [4] 18 µM | [5] 23.7 µM | [6] > 100 µM | [8] 78.7 µM | [9] > 100 µM | [10] 67.8 µM | [11] > 100 µM | [12] 63.8 µM | [13] > 100 µM | [14] > 100 µM | [15] 35.2 µM | [16] > 100 µM

Cc1cn(Cc2ccccc2CCO)c(=S)[nH]c1=O
inactive: [1] > 100 µM | [2] > 100 µM | [3] > 100 µM | [4] > 100 µM | [5] > 100 µM | [6] > 100 µM | [7] > 100 µM | [8] > 100 µM | [9] > 100 µM | [10] > 100 µM | [11] > 100 µM | [12] > 100 µM | [13] > 100 µM | [14] > 100 µM | [15] > 100 µM | [16] > 100 µM

CC(=O)OCC1OC(N2C(=O)C(=O)c3cc(C)ccc32)C(OC(C)=O)C(OC(C)=O)C1OC(C)=O (configuration not stated)
inactive: [1] > 100 µM | [2] 36.3 µM | [3] > 100 µM | [4] 39.8 µM | [5] 51.5 µM | [6] 99.3 µM | [7] 58.7 µM | [8] > 100 µM | [9] 52.1 µM | [10] 65.6 µM | [11] 29 µM | [12] 63.4 µM | [13] > 100 µM | [14] 37.4 µM | [15] > 100 µM | [16] > 100 µM

O=C1c2ccccc2-c2c3c(cc4ccnc1c24)OCO3 [LIRIODENINE]
inactive: [3] 16.9 µM and 11.5 µM | [4] 5.55 µM and 5.06 µM | [5] 8.69 µM and 5.61 µM | [6] 9.25 µM and 10.5 µM | [7] 2.84 µM | [8] 22.2 µM and 17.9 µM | [9] 4.05 µM and 5.4 µM | [10] 4.98 µM and 5.82 µM | [11] 3.38 µM and 3.67 µM | [12] 4.04 µM and 5.14 µM | [13] 24.9 µM | [14] 4.57 µM and 2.77 µM | [15] 3.89 µM | [16] 4.92 µM and 3.82 µM

COc1cc(CC(C)N)ccc1O (configuration not stated)
inactive: [1] > 100 µM | [2] > 100 µM | [3] > 100 µM | [17] > 100 µM | [4] > 100 µM | [5] > 85.9 µM | [6] > 100 µM | [7] > 100 µM | [8] > 100 µM | [18] > 100 µM | [9] > 100 µM | [10] > 100 µM | [11] > 100 µM | [12] > 100 µM | [13] > 100 µM | [14] > 100 µM | [15] > 100 µM | [16] > 100 µM

Cc1c2c(c(C)c3c1[nH]c1ccccc13)CN(C)CC2
inactive: [1] 29.4 µM | [2] 17 µM | [3] 38.8 µM | [4] 17.6 µM | [5] 16.6 µM | [6] 18.7 µM | [7] 13.3 µM | [8] 25.5 µM | [9] 15.4 µM | [10] 20.6 µM | [11] 28.7 µM | [12] 16.4 µM | [13] 6.21 µM | [14] 18 µM | [15] 23.2 µM | [16] 15.3 µM

Cc1ccc(NC(=O)CCc2nnc3s/c(=C\C=C\c4ccccc4)c(=O)n23)cc1
inactive: [1] > 100 µM | [2] 37.8 µM | [3] > 100 µM | [19] > 86.5 µM | [17] 26.5 µM | [4] > 81.8 µM | [5] > 83 µM | [6] 44.9 µM | [7] > 95.5 µM | [8] > 100 µM | [18] > 100 µM | [9] > 100 µM | [20] > 100 µM | [10] > 100 µM | [11] 30 µM | [12] 31.3 µM | [13] 90.2 µM | [14] 80.4 µM | [15] > 95.5 µM | [16] > 100 µM

COC(=O)c1c[nH]cc1CCCCc1c[nH]cc1C(=O)OC
inactive: [1] > 100 µM | [2] > 100 µM | [3] > 100 µM | [4] > 100 µM | [5] 58.6 µM | [6] > 100 µM | [8] > 100 µM | [9] > 100 µM | [10] > 100 µM | [11] > 100 µM | [12] > 100 µM | [13] > 100 µM | [15] > 100 µM | [16] > 100 µM

O=C1C2C3CCC(C2C(=O)N1CO)C1C2C(=O)N(CO)C(=O)C2C31 (configuration not stated)
inactive: [1] > 100 µM | [2] 65.9 µM | [3] > 100 µM | [4] > 46.9 µM | [5] > 63.1 µM | [6] > 100 µM | [7] 43.4 µM | [8] > 100 µM | [9] > 87.9 µM | [10] > 47.2 µM | [11] 25.1 µM | [12] 32.4 µM | [13] 13.7 µM | [14] 53.1 µM | [15] > 100 µM | [16] 26.2 µM

CC12c3ccccc3C(OC=O)(c3ccccc31)C1(C)c3ccccc3C2(OC=O)c2ccccc21
inactive: [1] > 100 µM | [2] > 100 µM | [3] > 100 µM | [4] > 100 µM | [5] > 100 µM | [6] > 100 µM | [7] > 100 µM | [8] > 100 µM | [9] > 100 µM | [10] > 100 µM | [11] 25.2 µM | [12] > 100 µM | [13] > 100 µM | [14] > 100 µM | [15] 48.5 µM | [16] > 100 µM

COc1ccc(N2C(=O)C3c4[nH]c5ccccc5c4C4CCCCCCC4C3C2=O)cc1 (configuration not stated)
inactive: [1] 20.1 µM | [2] 13.9 µM | [3] > 52.1 µM | [5] 13.8 µM | [6] 5.93 µM | [7] 23.8 µM | [8] 14.4 µM | [9] 13.1 µM | [10] 4.79 µM | [11] 8 µM | [12] 3.8 µM | [13] 1.57 µM | [14] 15.9 µM | [15] 8.22 µM | [16] 7.14 µM
